Measured values taken from US7956188B2, “Acetamide compounds as fungicides” (Syngenta Crop Protection, Inc., priority 2004, dated 2011).

| SMILES | melting point |
| --- | --- |
| CSC(Oc1cc(I)c2ncc(Br)cc2c1)C(=O)NC(C)(C)C (stereo not drawn) [12 (62A), 2-(3-bromo-8-iodo-quinolin-6-yloxy)-N-tert-butyl-2-methylsulfanyl-acetamide] | 171 to 172 °C |
| CSC(Oc1cc(C)c(Br)c(C)c1)C(=O)NC(C)(C)C (stereo not drawn) [12 (15), 2-(4-bromo-3,5-dimethylphenoxy)-2-methylthio-N-(2-methyl-prop-2-yl)acetamide] | 123 to 125 °C |
| CSC(Oc1cc(Cl)c2ncc(Br)cc2c1)C(=O)NC(C)(C)C (stereo not drawn) [12 (62), 2-(3-bromo-8-chloro-quinolin-6-yloxy)-N-tert-butyl-2-methylsulfanyl-acetamide] | 160 to 161 °C |
